{
  "source": "patent US8101368B2",
  "about": "“Quantitation of cellular DNA and cell numbers using element labeling” (DVS Sciences Inc., priority 2006, dated 2012)",
  "key": {"KG-1a cells": {"tested_on": "KG-1a cells", "assay": "Viability with trypan blue of cells cultured in Pd-supplemented media", "type": "cell-based", "conditions": "500 ppb Pd in growth media, 72 hours", "description": "(§1) The experiment was set up to investigate if metals passively accumulated by cells could be indicative of cell number and cell type. For this purpose two different leukemia cell lines were cultured for 72 hours in growth media supplemented with very low amounts of rare earth metals: 100 ppb Rh was added to MBA-1 cells, and 500 ppb Pd was added to KG-1a cells which express the cell surface marker. During the three days of cell culture, aliquots of cells were tested for viability with trypan blue. […] Cells were collected by centrifugation (1200 rpm, 10 minutes), washed once in PBS/10% FBS and counted in a hemocytometer. Serial dilutions were prepared to give 1×10^6, 0.5×10^6, 1×10^5, 1×10^4, 1×10^3, and 1×10^2 KG-1a cells in a population of MBA-1 cells (1×10^6) per tube in triplicates (Table 1). In this example Pd will reflect the number of KG-1a cells and the presence of surface marker CD34 will specify the cell type, while MBA-1 cells are marked by Rh. Immunolabeling was carried out by adding anti-CD34 antibodies to tubes containing decreasing amounts of live KG-1a cells and incubating for 45 minutes on ice. Negative control tubes were reacted with the IgG1 isotype control immunoglobulins. After three low speed centrifugation washes with PBS/10% FBS all samples were incubated with biotinylated anti-mouse antibodies. […]"}, "MBA-1 cells [1]": {"tested_on": "MBA-1 cells", "assay": "Viability with trypan blue of cells cultured in Rh-supplemented media", "type": "cell-based", "conditions": "100 ppb Rh in growth media, 72 hours", "description": "as §1"}, "MBA-1 cells [2]": {"tested_on": "MBA-1 cells", "experimental": "Reactivity of the Rh(III) metallointercalator with fixed and fixed/permeabilized versus live cells was also examined. Equal amounts of MBA-1 cells (1×10^6) were either fixed/permeabilized as above, fixed in 3.7% formaldehyde alone or left untreated (live cells). After two washes in PBS the cells were incubated with 200 uM [Rh(phi)2bpy]Cl3 for 30 minutes; washed three more times and dissolved in HCl."}, "MBA-1 cells [3]": {"tested_on": "MBA-1 cells", "assay": "Binding of increasing concentrations of Rh(III) intercalator to fixed/permeabilized cells, ICP-MS", "type": "cell-based", "conditions": "2.5 nanoM to 250 microM, 45 minutes, 1×10^6 fixed/permeabilized cells; linear response", "description": "Binding of an intercalator to DNA is governed by the law of mass action. Assuming that a mammalian cell in G1 phase has 3.3×10^9 DNA base pairs of which only 10-70% are free from protein interaction (nucleosomes) and available for binding with the intercalator (one molecule per two base pairs at saturation), the number of molecules of dye needed is approximately 1-10×10^8. Thus for [Rh(phi)2bpy]Cl3, with 671 MW, 1 ml of 200 uM solution should be 100-fold excess of intercalator over DNA binding sites for 1×10^6 cells. The binding of various amounts of the Rh(III) intercalator with cultured cells was assessed. MBA-1 cells were fixed in 3.7% formaldehyde/PBS for 15 minutes, followed by permeabilization with 0.3% TRITON™ X-100/PBS; washed once with PBS and incubated for 45 minutes with 1 ml of increasing concentrations of [Rh(phi)2bpy]Cl3 from 2.5 nanoM to 250 microM. Each sample contained 1×10^6 cells, run in triplicates. Following washing, the cell pellets were treated with concentrated HCl, mixed with an equal volume of 1 ppb Ir internal standard, and analyzed in solution by ICP-MS."}, "DNA": {"tested_on": "DNA", "conditions": "rhodium/base pair ratios of 2:1; cited from earlier work"}, "K562 cells": {"tested_on": "K562 cells", "assay": "Cell cycle synchronization checked by propidium iodide flow cytometry", "type": "cell-based", "description": "Cells were synchronized in G1/S and G2/M phases of the cell cycle using a DNA synthesis inhibitor, thymidine, followed by a mitotic inhibitor, nocodazole. The DNA content of the G0/G1 phase is centered at 2n. Treatment with double thymidine results in a G1/S-phase arrested cell population with approximately […]. Nocodazole addition following a single thymidine treatment arrests cells in the G2/M stage with 4n DNA content. K562 cells were treated with 2 mM thymidine added to culture medium for 17 hours. The cells were then washed and incubated in fresh media for 9 hours. At the end of this rest period the culture was split into two flasks—one received the second dose of 2 mM thymidine (double thymidine block) to arrest cells at G1/S; the other—0.2 ug/ml nocodazole (single thymidine-nocodazole block) to arrest cells at the M phase. The inhibitors were left in culture media for 17 hours. […] After several washes the cells were digested in concentrated HCl and analyzed by ICP-MS. […] Treatment of stained cells with enzymes shifts the detected Rh values due to enhanced binding of metallointercalator to naked DNA. […] In the case of RNAse A treatment—degradation of small RNA molecules bound to DNA such as siRNA that may block interaction of intercalator and DNA may lead to higher detected Rh values."}},
  "data": [
    {"smiles": "[Pd]", "note": "[Pd, palladium]", "values": [
      {"measurement": "Cell death due to presence of metal in media", "setting": "KG-1a cells", "result": "No excessive cell death"}
    ]},
    {"smiles": "[Rh]", "note": "[Rh, rhodium]", "values": [
      {"measurement": "Cell death due to presence of metal in media", "setting": "MBA-1 cells [1]", "result": "No excessive cell death"}
    ]},
    {"smiles": "[Cl-].[Cl-].[Cl-].[NH-]c1c([NH-])c2ccccc2c2ccccc12.[NH-]c1c([NH-])c2ccccc2c2ccccc12.[Rh].c1ccc(-c2ccccn2)nc1", "note": "[[Rh(phi)2bpy]Cl3]", "values": [
      {"measurement": "Membrane permeability in live cells", "setting": "MBA-1 cells [2]", "result": "membrane impermeable"},
      {"measurement": "Saturation of DNA binding (normalized Rh signal response)", "setting": "MBA-1 cells [3]", "result": "without reaching a saturation limit"},
      {"measurement": "Sequence dependence of binding to DNA", "setting": "DNA", "result": "sequence neutral and random"}
    ]},
    {"smiles": "COC(=O)Nc1nc2ccc(C(=O)c3cccs3)cc2[nH]1", "note": "[nocodazole]", "values": [
      {"measurement": "Cell cycle phase after block", "setting": "K562 cells; single thymidine-nocodazole block, 0.2 ug/ml nocodazole, 17 hours", "result": "practically all cells were in M phase"}
    ]},
    {"smiles": "Cc1cn([C@H]2C[C@H](O)[C@@H](CO)O2)c(=O)[nH]c1=O", "note": "[thymidine]", "values": [
      {"measurement": "Cell cycle phase after block", "setting": "K562 cells; double thymidine block, 2 mM, 17 hours each", "result": "majority of cells were in G1/S"}
    ]}
  ]
}
